Holding throughout (format): cell-based
The subject of data set [1] is Enterococcus faecalis CIP 103015. Nature of the data set: MIC/MBC (Example 10, MH medium). The conditions noted are these: Table 5; E. faecalis CIP 103015. The method, then: (§1) The MIC is determined using a growth inhibition test in liquid medium. The MIC is defined as being the lowest peptide concentration capable of inhibiting the bacterial strain tested, after incubation for 18 h at 37° C. The test was carried out in a sterile microtitration plate containing 96 wells. A series of increasing concentrations of each peptide (0.2 to 100 µM) was prepared beforehand in sterile MilliQ water. In each well, 10 µL of peptide was incubated with 90 µL of bacterial suspension (10^7 cfu/mL) in yeast extract-free LB medium. The microplate was incubated at 37° C. for 18 h. The bacterial growth was evaluated by measuring the OD at 620 nm using a plate reader.
(§2) The negative growth inhibition control was obtained by replacing the solution containing the peptide by sterile MilliQ water. The positive control suitable for completely inhibiting the growth of the bacterial strains was obtained by replacing the solution containing the peptide by 10 µL of formaldehyde.
(§3) The results are interpreted by calculating the percentage of bacterial growth in each well according to the formula:
(§4) %Growth = (OD well - OD of T0)/(OD of T100-OD of T0)*100 where
(§5) • OD of T100 = OD of growth control (bacterial suspension free from sample under test, 100% growth), • OD of T0 = OD of sterility control (culture medium + bacterium + 10 µL formaldehyde, 0% growth) and • OD well = OD of well for which it is sought to calculate the growth percentage (bacterial suspension + peptide under test).
(§6) The MBC is defined as being the minimum peptide concentration leaving no surviving bacteria of the inoculum after incubation at 37° C. for 24 hours. This test consists of smearing the contents of the well wherein the peptide has inhibited bacterial growth on a Petri dish (LB agar), followed by incubation for 24 h at 37° C.
(§7) A 10 mL preculture in Muller-Hinton (MH) medium is prepared by inoculating a colony of the bacterial strain of interest. The preculture is incubated at 37° C. under stirring overnight. The culture is subcultured to 1:100 under the same conditions. The culture concentration is evaluated by measuring the turbidity at 600 nm (OD600 nm 1.0 = 5 × 10^8 CFU/mL for E. coli (Gram-negative bacteria) and 1.5 × 10^8 CFU/mL for S. aureus (Gram-positive bacteria). Once the exponential growth phase (OD600 nm = 0.3 - 0.7) has been achieved, the cultures are diluted in MH medium so as to obtain 10^6 CFU/mL (final inoculum concentration).
(§8) The MIC and the MBC were determined as per the protocol described in part 2.1 of Example 2.

The test system of data set [2] is Pseudomonas aeruginosa ATCC 9027. Nature of the data set: MIC/MBC (Example 10, MH medium). The conditions noted are these: Table 5; P. aeruginosa ATCC 9027. How it is done: as §1, §2, §3, §4, §5, §6, §7, §8
Data set [3] concerns Staphylococcus aureus ATCC 6538. Nature of the data set: MIC/MBC (Example 10, MH medium). The note with it: Table 5; S. aureus ATCC 6538. How it is done: as §1, §2, §3, §4, §5, §6, §7, §8
Data set [4] deals with Escherichia coli ATCC 8739. Kind of data set: MIC/MBC (Example 10, MH medium). The conditions noted are these: Table 5; E. coli ATCC 8739. How it is done: as §1, §2, §3, §4, §5, §6, §7, §8
Data set [5] deals with immune cells obtained from mouse bone marrow. Kind of data set: Cytotoxic effects on immune cells obtained from mouse bone marrow. The note with it: 12.5 µM; 2 hours. How it is done: (§9) The mouse immune cells are obtained from C57BL/6 or Balb/c mouse bone marrow. The peptides are incubated at 37° C., 5% CO2 in the presence of 500,000 immune cells in RPMI medium at varied concentrations for 2 hours. Peptide-free cells are used as the negative control and cells in the presence of DMSO (30%) are used as the positive control. After incubation, the cells are washed then labelled with Trypan blue so as to measure the cell viability by microscope counting. The LC50 is then calculated as being the concentration of DA2N, K12A and DANa peptides inducing the death of 50% of the immune cells.

Assay in data set [6]: as above
The note with it: mouse immune cells originating from bone marrow, read-out: LC50. How it is done:
as §9

Converted amounts (≈) assume the structure as drawn. Square brackets hold non-standard residues; d marks the D form. Ends that are not written are not given here. Peptide text beside a SMILES is read from it.

In general, MBC refers to the smallest concentration meeting the test's criterion for killing. Low readings indicate more potent killing, high ones less potent killing. As a reminder, the MIC is the lowest concentration found to suppress growth. Read a low MIC as inhibition by little substance. As for `CSCC[C@@H](NC(=O)[C@@H](CC(N)=O)NC(=O)[C@H](NC(=O)[C@H](NC(=O)[C@@H](C)NC(=O)[C@@H](CC(N)=O)NC(=O)[C@@H](CC(C)C)NC(=O)[C@H](NC(=O)[C@@H](C)NC(=O)[C@@H](CCCCN)NC(=O)CNC(=O)[C@@H](C)NC(=O)[C@H](NC(=O)[C@@H](CCCCN)NC(=O)CNC(=O)[C@H](NC(=O)[C@@H](CCCCN)NC(=O)[C@@H](CCCCN)NC(=O)[C@@H](CC(C)C)NC(=O)[C@@H](CC(C)C)NC(=O)[C@H](NC(=O)[C@@H](CCCCN)NC(=O)[C@@H](Cc1c[nH]c2ccccc12)NC(=O)[C@@H](CC(C)C)NC(=O)[C@@H](C)N)[C@H](C)O)C(C)C)C(C)C)C(C)C)C(C)C)[C@H](C)O)C(=O)N[C@H](C)C(=O)N[C@H](CC(N)=O)C(=O)N[C@H](CCC(N)=O)C(=O)N[C@H](CC(N)=O)C(=O)O` [DA2N (D), dAdLdWdKdTdLdLdKddKdVdGdKdVdAdGdKdAdVdLdNdAdVdTdNdMdAdNdQdN] (H-[dA][dL][dW][dK][dT][dL][dL][dK][dK][dV]G[dK][dV][dA]G[dK][dA][dV][dL][dN][dA][dV][dT][dN][dM][dA][dN][dQ][dN]-OH; N-terminus and C-terminus assumed), the MBC in data set [1] came out at 3.1 µM (≈ 9.55 µg/mL); in data set [2], 0.8 µM (≈ 2.47 µg/mL); in data set [3] it was 0.8 µM (≈ 2.47 µg/mL); in data set [4] it was 0.8 µM (≈ 2.47 µg/mL). Further, the MIC in data set [1] was determined as 3.1 µM (≈ 9.55 µg/mL); in data set [2], 0.8 µM (≈ 2.47 µg/mL); in data set [3], 0.8 µM (≈ 2.47 µg/mL); in data set [4], 0.4 µM (≈ 1.23 µg/mL). The “death of immune cells” value in data set [5] was “induce the death of immune cells at a concentration of 12.5 µM with a comparable efficacy to DA2N”.
Regarding `CSCC[C@@H](NC(=O)[C@@H](CC(N)=O)NC(=O)[C@H](NC(=O)[C@H](NC(=O)[C@@H](C)NC(=O)[C@@H](CC(N)=O)NC(=O)[C@@H](CC(C)C)NC(=O)[C@H](NC(=O)[C@@H](C)NC(=O)[C@@H](CCCCN)NC(=O)CNC(=O)[C@@H](C)NC(=O)[C@H](NC(=O)[C@@H](CCCCN)NC(=O)CNC(=O)[C@H](NC(=O)[C@@H](CCCCN)NC(=O)[C@@H](CCCCN)NC(=O)[C@@H](CC(C)C)NC(=O)[C@@H](CC(C)C)NC(=O)[C@H](NC(=O)[C@@H](CCCCN)NC(=O)[C@@H](Cc1c[nH]c2ccccc12)NC(=O)[C@@H](CC(C)C)NC(=O)[C@@H](C)N)[C@H](C)O)C(C)C)C(C)C)C(C)C)C(C)C)[C@H](C)O)C(=O)N[C@H](C)C(=O)N[C@H](CC(N)=O)C(=O)N[C@H](CCC(N)=O)C(=O)N[C@H](CC(N)=O)C(=O)N[C@H](CCC(=O)O)C(=O)N[C@H](CCC(N)=O)C(=O)O` [DA2NEQ (D), dAdLdWdKdTdLdLdKdKdVdGdKdVdAdGdKdAdVdLdNdAdVdTdNdMdAdNdQdNdEdQ] (H-[dA][dL][dW][dK][dT][dL][dL][dK][dK][dV]G[dK][dV][dA]G[dK][dA][dV][dL][dN][dA][dV][dT][dN][dM][dA][dN][dQ][dN][dE][dQ]-OH; N-terminus and C-terminus assumed), the MBC in data set [1] was 12.5 µM (≈ 41.7 µg/mL); in data set [2], 3.1 µM (≈ 10.4 µg/mL); in data set [3], 1.6 µM (≈ 5.34 µg/mL); in data set [4] it was 0.8 µM (≈ 2.67 µg/mL). Also, the MIC is reported as 12.5 µM (≈ 41.7 µg/mL) in data set [1], 1.6 µM (≈ 5.34 µg/mL) in data set [2], 1.6 µM (≈ 5.34 µg/mL) in data set [3] and 0.8 µM (≈ 2.67 µg/mL) in data set [4].
Take ALWDTLLKKVGKVAGKAVLNAVTNMANQN [K4D]: the MBC in data set [1] is on record as 50 µM; in data set [2] it was 25 µM; in data set [3] it was 12.5 µM; in data set [4], 12.5 µM. Further, the MIC in data set [1] is 50 µM; in data set [2] it was 25 µM; in data set [3] it was 12.5 µM; in data set [4], 12.5 µM.
As to ALWKTLAKKVGKVAGKAVLNAVTNMANQN [L7A], the minimum bactericidal concentration (MBC) amounted to 6.3 µM in data set [1], 1.6 µM in data set [2], 3.1 µM in data set [3] and 0.8 µM in data set [4]. The minimum inhibitory concentration (MIC) in data set [1] came to 6.3 µM; in data set [2] it was 1.6 µM; in data set [3], 3.1 µM; in data set [4], 0.8 µM.
Consider ALWKTLLKKVGAVAGKAVLNAVTNMANQN [K12A], for which the MBC in data set [1] is 12.5 µM; in data set [2] it was 6.3 µM; in data set [3], 6.3 µM; in data set [4], 1.6 µM. The MIC in data set [1] is given as 12.5 µM; in data set [2] it was 6.3 µM; in data set [3] it was 3.1 µM; in data set [4], 1.6 µM. The CC50 at 2 hours in data set [6] came out at 6.5 µM.
With ALWKTLLKKVGKAAGKAVLNAVTNMANQN [V13A], the MBC in data set [1] was found to be 50 µM; in data set [2], 6.3 µM; in data set [3], 12.5 µM; in data set [4], 1.6 µM. Moreover, the minimum inhibitory concentration (MIC) in data set [1] worked out at 50 µM; in data set [2], 6.3 µM; in data set [3] it was 6.3 µM; in data set [4], 1.6 µM.
Consider ALWKTLLKKVGKVAGKAVLNAVTNAANQN [M25A], for which the MBC is on record as 12.5 µM in data set [1], 3.1 µM in data set [2], 3.1 µM in data set [3] and 0.8 µM in data set [4]. Moreover, the minimum inhibitory concentration (MIC) in data set [1] was 12.5 µM; in data set [2] it was 3.1 µM; in data set [3], 3.1 µM; in data set [4], 0.8 µM.
Take “ALWKTLLKKVGKVAGKAVLNAVTNMANQN-NH2 [DA2Na]”: the MBC worked out at 3.1 µM in data set [1], 1.6 µM in data set [2], 1.6 µM in data set [3] and 0.8 µM in data set [4]. In addition, the MIC is 3.1 µM in data set [1], 1.6 µM in data set [2], 0.8 µM in data set [3] and 0.8 µM in data set [4]. Besides, in data set [6], the CC50 at 2 hours came to 3.75 µM.
Turning to ALWKTLLKKVGKVDGKAVLNAVTNMANQN [A14D], the MBC in data set [1] is over 50 µM; in data set [2], over 50 µM; in data set [3] it was over 50 µM; in data set [4] it was 6.3 µM. Moreover, the MIC in data set [1] was over 50 µM; in data set [2] it was 50 µM; in data set [3] it was over 50 µM; in data set [4], 6.3 µM.
Take ALWKTLLKKVGKVKGKAVLNAVTNMANQN [A14K]: the MBC is over 50 µM in data set [1], 12.5 µM in data set [2], 50 µM in data set [3] and 1.6 µM in data set [4]. The MIC in data set [1] is over 50 µM; in data set [2], 12.5 µM; in data set [3], 25 µM; in data set [4] it was 1.6 µM.
On to ALWKTLLKKVGPVAGKAVLNAVTNMANQN [K12P], for which the minimum bactericidal concentration (MBC) in data set [1] is on record as over 50 µM; in data set [2], 12.5 µM; in data set [3] it was 6.3 µM; in data set [4], 6.3 µM. The MIC was over 50 µM in data set [1], 12.5 µM in data set [2], 6.3 µM in data set [3] and 6.3 µM in data set [4].
In the case of Gramicidin [reference compound], the MBC in data set [1] was 0.8 µM; in data set [2], over 100 µM; in data set [3], over 50 µM; in data set [4], over 100 µM. The MIC in data set [1] was 0.8 µM; in data set [2], over 100 µM; in data set [3], over 50 µM; in data set [4], over 100 µM.

The values above are taken from patent publication US20230192772A1, “ANTIMICROBIAL PEPTIDES AND USES THEREOF” (SORBONNE UNIVERSITE, priority 2016, published 2023).
